Measurements: patent US10308916B2, “Omega-transaminase mutants with activity improvements toward ketones and methods for producing optically pure amines” (Industry-Academic Cooperation Foundation, Yonsei University, priority 2015, dated 2019)

Legend:
Assay type in all cases: biochemical
OATA W58A [1] = test system: OATA W58A
OATA W58L [2] = test system: OATA W58L
OATA L57A = test system: OATA L57A
OATA L57A/W58A = test system: OATA L57A/W58A
OATA L57A/W58A/V154A = test system: OATA L57A/W58A/V154A
OATA W58A [3] = conditions: pH 7
OATA W58V = conditions: pH 7
OATA W58I = conditions: pH 7
OATA W58M = conditions: pH 7
OATA W58L [4] = conditions: pH 7
OATA W58L [5] = test system: OATA W58L; remark: listed apart in the source
OATA L57C/W58L/I261A = test system: OATA L57C/W58L/I261A

## (S)-sec-butylamine
OATA W58A [1]
  Relative reactivity, OATA W58A: 66%
OATA W58L [2]
  Relative reactivity, OATA W58L: 266%

## CCCC[C@H](C)N [(S)-2-aminohexane]
OATA W58A [1]
  Relative reactivity, OATA W58A: 116%
OATA W58L [2]
  Relative reactivity, OATA W58L: 306%

## CC(C)CC(C)N (stereo not shown) [1,3-Dimethylbutylamine]
OATA W58A [1]
  Relative reactivity, OATA W58A: 173%
OATA W58L [2]
  Relative reactivity, OATA W58L: 283%

## N[C@H]1CCc2ccccc21 [(S)-1-aminoindan]
OATA W58A [1]
  Relative reactivity, OATA W58A: 100%
OATA W58L [2]
  Relative reactivity, OATA W58L: 54%

## CCC(=O)C(=O)O [2-oxobutanoic acid]
OATA L57A
  Relative activity, OATA L57A: 34%
OATA L57A/W58A
  Relative activity, OATA L57A/W58A: 290%
  fold increase in reaction rate compared to OATA L57A: 8
OATA L57A/W58A/V154A
  Relative activity, OATA L57A/W58A/V154A: 852%
  fold increase in reaction rate compared to OATA L57A: 25

## CCC(=O)CO [1-hydroxy-2-butanone]
OATA W58A [3]
  Relative activity to acetophenone, OATA W58A: 9%
OATA W58V
  Relative activity to acetophenone, OATA W58V: 8%
OATA W58I
  Relative activity to acetophenone, OATA W58I: 16%
OATA W58M
  Relative activity to acetophenone, OATA W58M: 21%

## CC(C)=O [acetone]
OATA W58A [3]
  Relative activity to acetophenone, OATA W58A: 19%
OATA W58V
  Relative activity to acetophenone, OATA W58V: 18%
OATA W58I
  Relative activity to acetophenone, OATA W58I: 18%
OATA W58M
  Relative activity to acetophenone, OATA W58M: 19%

## CC(=O)C(C)O (stereo not shown) [3-hydroxy-2-butanone]
OATA W58A [3]
  Relative activity to acetophenone, OATA W58A: 20%
OATA W58V
  Relative activity to acetophenone, OATA W58V: 29%
OATA W58I
  Relative activity to acetophenone, OATA W58I: 23%
OATA W58M
  Relative activity to acetophenone, OATA W58M: 32%

## CC(C)C(=O)C(=O)O [3-methyl-2-oxobutyric acid]
OATA L57A/W58A/V154A
  Relative activity, OATA L57A/W58A/V154A: 11%

## CC(=O)CO [hydroxyacetone]
OATA W58A [3]
  Relative activity to acetophenone, OATA W58A: 31%
OATA W58V
  Relative activity to acetophenone, OATA W58V: 32%
OATA W58I
  Relative activity to acetophenone, OATA W58I: 42%
OATA W58L [4]
  Relative activity to acetophenone, OATA W58L: 23%
OATA W58M
  Relative activity to acetophenone, OATA W58M: 44%

## COc1ccc([C@H](C)N)cc1 [(S)-4-methoxy-α-methylbenzylamine]
OATA W58A [1]
  Relative reactivity, OATA W58A: 44%
OATA W58L [2]
  Relative reactivity, OATA W58L: 98%

## CCCCC(C)=O [Ketone 1k, 2-hexanone]
OATA W58A [3]
  Relative activity to acetophenone, OATA W58A: 52%
OATA W58V
  Relative activity to acetophenone, OATA W58V: 62%
OATA W58I
  Relative activity to acetophenone, OATA W58I: 54%
OATA W58L [4]
  Relative activity to acetophenone, OATA W58L: 281%
OATA W58M
  Relative activity to acetophenone, OATA W58M: 57%
OATA W58L [5]
  Conversion (%) OATAW58L: 93%

## CC(=O)c1ccc(C)cc1 [Ketone 1d, 4-methylacetophenone]
OATA W58A [3]
  Relative activity to acetophenone, OATA W58A: 56%
OATA W58V
  Relative activity to acetophenone, OATA W58V: 52%
OATA W58I
  Relative activity to acetophenone, OATA W58I: 74%
OATA W58L [4]
  Relative activity to acetophenone, OATA W58L: 51%
OATA W58M
  Relative activity to acetophenone, OATA W58M: 68%
OATA L57C/W58L/I261A
  Relative activity, OATA L57C/W58L/I261A: 1,096%
OATA W58L [5]
  Conversion (%) OATAW58L: 91%

## CC(C)(C)C(N)c1ccccc1 (stereo not shown) [2,2-Dimethyl-1-phenylpropan-1-amine]
OATA W58A [1]
  Relative reactivity, OATA W58A: 3%
OATA W58L [2]
  Relative reactivity, OATA W58L: 2%

## Cc1cccc(C)c1OCC(C)N (stereo not shown) [Mexiletine, reference compound]
OATA W58A [1]
  Relative reactivity, OATA W58A: 197%
OATA W58L [2]
  Relative reactivity, OATA W58L: 284%

## CC(=O)CCO [4-hydroxy-2-butanone]
OATA W58A [3]
  Relative activity to acetophenone, OATA W58A: 17%
OATA W58V
  Relative activity to acetophenone, OATA W58V: 20%
OATA W58I
  Relative activity to acetophenone, OATA W58I: 20%
OATA W58M
  Relative activity to acetophenone, OATA W58M: 29%

## Cc1ccc([C@H](C)N)cc1 [(S)-α,4-dimethylbenzylamine]
OATA W58A [1]
  Relative reactivity, OATA W58A: 45%
OATA W58L [2]
  Relative reactivity, OATA W58L: 78%

## CC(C)C(C)N (stereo not shown) [1,2-Dimethylpropylamine]
OATA W58A [1]
  Relative reactivity, OATA W58A: 101%
OATA W58L [2]
  Relative reactivity, OATA W58L: 305%

## C[C@H](N)C1CC1 [(S)-1-Cyclopropylethylamine]
OATA W58A [1]
  Relative reactivity, OATA W58A: 79%
OATA W58L [2]
  Relative reactivity, OATA W58L: 233%

## CC(N)c1ccc(F)cc1 (stereo not drawn) [4-Fluoro-α-methylbenzylamine]
OATA W58A [1]
  Relative reactivity, OATA W58A: 117%
OATA W58L [2]
  Relative reactivity, OATA W58L: 283%

## CCCCCCC(=O)C(=O)O [2-oxooctanoic acid]
OATA L57A
  Relative activity, OATA L57A: 2%
OATA L57A/W58A
  Relative activity, OATA L57A/W58A: 7%
OATA L57A/W58A/V154A
  Relative activity, OATA L57A/W58A/V154A: 21%

## CC(N)CO (racemic) [DL-Alaninol]
OATA W58A [1]
  Relative reactivity, OATA W58A: 13%
OATA W58L [2]
  Relative reactivity, OATA W58L: 39%
